≈ marks a conversion by molar mass, not a printed value.
How the values were obtained:
[1] = system: Mycoplasma garisepticum S6; assay: MIC against Mycoplasma (Table 3); type: cell-based; details: S6, 120 h, 10^6 CFU/ml, Hayflick medium, 37° C., 5 days
From the text: | Inoculum size: 10^6 CFU/ml

[2] = system: Peptostreptococcus anaerobium B-40; assay: MIC against anaerobic bacteria (Table 3); type: cell-based; details: B40, 10^6 CFU/ml, GAM medium, Gas Pack, 37° C., 18 hours
[3] = system: Treponema hyodicenterie 78/A; assay: MIC against Spirochaeta (Table 3); details: 48 h
Mycoplasma pulmonis M-53 = assay: MIC against Mycoplasma (Table 3); details: M53, 120 h
[4] = system: Staphylococcus aureus 308A-1; assay: Therapeutic effect on infectious disease in mice (Table 5); type: in vivo
[5] = system: Acinetobacter calcoaceticus IFO 12552; type: cell-based; details: IFO12552, agar dilution, DY medium, pH unadjusted, approx. 10^6 CFU/ml, read-out: Minimum Inhibitory Conc. (MIC)
Protocol: (§1) (Note 1) Measurement was conducted by employing a medium consisting of DY
(§2) medium [Bacto Antibiotic Medium 3 (Difco Laboratories, USA)(17.5 g), Bact
(§3) yeast extract(Difco Laboratories, USA)(5.0 g) and distilled water(pH
(§4) unadjusted)(1000 ml)], using approximately 10^6 colony forming unit/m
(§5) of inoculum, by means of the agar dilution method.

Aeromonas caviae NCW = type: cell-based; details: read-out: Minimum Inhibitory Conc. (MIC)
Protocol: as §1, §2, §3, §4, §5

[6] = system: Staphylococcus epidermidis IFO 3762; type: cell-based; details: IFO3762, agar dilution, DY medium, pH unadjusted, approx. 10^6 CFU/ml, read-out: Minimum Inhibitory Conc. (MIC)
Protocol: as §1, §2, §3, §4, §5

[7] = system: Streptococcus faecalis IFO 3989; type: cell-based; details: Enterococcus faecalis, IFO3989, read-out: Minimum Inhibitory Conc. (MIC)
Protocol: as §1, §2, §3, §4, §5

[8] = system: Bacillus megaterium IFO 12108; type: cell-based; details: Priestia megaterium, IFO12108, read-out: Minimum Inhibitory Conc. (MIC)
Protocol: as §1, §2, §3, §4, §5

[9] = system: Micrococcus luteus IFO 12708; type: cell-based; details: IFO12708, read-out: Minimum Inhibitory Conc. (MIC)
Protocol: as §1, §2, §3, §4, §5

[10] = system: Salmonella typhimurium IFO 12529; type: cell-based; details: Salmonella enterica; agar dilution; DY medium, pH unadjusted; approx. 10^6 CFU/ml; read-out: Minimum Inhibitory Conc. (MIC)
Protocol: as §1, §2, §3, §4, §5

[11] = system: Proteus vulgaris IFO 3988; type: cell-based; details: IFO3988, agar dilution, DY medium, pH unadjusted, approx. 10^6 CFU/ml, read-out: Minimum Inhibitory Conc. (MIC)
Protocol: as §1, §2, §3, §4, §5

Bacillus cereus FDA 5 = type: cell-based; details: FDA5, agar dilution, DY medium, pH unadjusted, approx. 10^6 CFU/ml, read-out: Minimum Inhibitory Conc. (MIC)
Protocol: as §1, §2, §3, §4, §5

[12] = system: Klebsiella pnemoniae IFO 3317; type: cell-based; details: IFO3317, agar dilution, DY medium, pH unadjusted, approx. 10^6 CFU/ml, read-out: Minimum Inhibitory Conc. (MIC)
Protocol: as §1, §2, §3, §4, §5

[13] = system: Pseudomonas aeruginosa IFO 3080; type: cell-based; details: IFO3080, agar dilution, DY medium, pH unadjusted, approx. 10^6 CFU/ml, read-out: Minimum Inhibitory Conc. (MIC)
Protocol: as §1, §2, §3, §4, §5

Escherichia coli LD-2 = type: cell-based; details: LD2, read-out: Minimum Inhibitory Conc. (MIC)
Protocol: as §1, §2, §3, §4, §5

[14] = system: Escherichia coli NIHJ JC 2; type: cell-based; details: NIHJJC2, agar dilution, DY medium, pH unadjusted, approx. 10^6 CFU/ml, read-out: Minimum Inhibitory Conc. (MIC)
Protocol: as §1, §2, §3, §4, §5

[15] = system: Bacillus subtilis NIHJ PCI 219; type: cell-based; details: read-out: Minimum Inhibitory Conc. (MIC)
Protocol: as §1, §2, §3, §4, §5

[16] = system: Staphylococcus aureus FDA 209P; type: cell-based; details: FDA209P, read-out: Minimum Inhibitory Conc. (MIC)
Protocol: as §1, §2, §3, §4, §5

[17] = Conversion in aqueous solution; type: physicochemical; details: room temperature
From the text: For example, in case that the mixture of TAN-1057A and B is isolated as crystals of the sulfate, the ratio of TAN-1057A and B is about 6 to 8:4 to 2.
The term "Antibiotics TAN-1057" in the present specification includes also a mixture which contains TAN-1057A, B, C and D in an optional combination and an optional ratio thereof.

CN(C(=O)C[C@@H](N)CCCNC(=N)N)[C@H]1CNC(NC(N)=O)=NC1=O [TAN-1057A] gave an MIC [1] of 3.13 µg/mL (≈ 8.81 µM), an MIC [2] of 25 µg/mL (≈ 70.3 µM) and an MIC [3] of 100 µg/mL (≈ 281 µM). The MIC (Mycoplasma pulmonis M-53) was 0.39 µg/mL (≈ 1.1 µM), the ED50 ([4]; 308A1, ip infection, Oral) was about 1 mg/kg and the ED50 ([4]; 308A1, sc, ip infection, Subcutaneous) was about 0.1 mg/kg. The MIC [5] was 50 µg/mL (≈ 141 µM), the MIC (Aeromonas caviae NCW) was 12.5 µg/mL (≈ 35.2 µM) and the MIC [6] was 0.78 µg/mL (≈ 2.19 µM). The MIC [7] was 12.5 µg/mL (≈ 35.2 µM), the MIC [8] was 12.5 µg/mL (≈ 35.2 µM) and the MIC [9] was 3.13 µg/mL (≈ 8.81 µM). For the same compound, the MIC [10] was 100 µg/mL (≈ 281 µM), the MIC [11] was over 100 µg/mL and the MIC (Bacillus cereus FDA 5) was 25 µg/mL (≈ 70.3 µM). It also gave an MIC [12] of over 100 µg/mL, an MIC [13] of over 100 µg/mL and an MIC (Escherichia coli LD-2) of 12.5 µg/mL (≈ 35.2 µM). It also gave an MIC [14] of over 100 µg/mL, an MIC [15] of 12.5 µg/mL (≈ 35.2 µM) and an MIC [16] of 6.25 µg/mL (≈ 17.6 µM). For the same compound, the “conversion of TAN-1057A and B into each other” value [17] was “converted easily each other”.

Source: patent US4971965A, “Antibiotics TAN-1057” (Takeda Chemical Industries, Ltd., priority 1988, dated 1990)
